From BindingDB's records for doi:10.7270/Q2N87841 (Burnham Center For Chemical Genomics, 2008)

Target: T1, Dual specificity protein phosphatase 6 (Rattus norvegicus, UniProt Q64346)
T1 sequence (Q64346 whole entry): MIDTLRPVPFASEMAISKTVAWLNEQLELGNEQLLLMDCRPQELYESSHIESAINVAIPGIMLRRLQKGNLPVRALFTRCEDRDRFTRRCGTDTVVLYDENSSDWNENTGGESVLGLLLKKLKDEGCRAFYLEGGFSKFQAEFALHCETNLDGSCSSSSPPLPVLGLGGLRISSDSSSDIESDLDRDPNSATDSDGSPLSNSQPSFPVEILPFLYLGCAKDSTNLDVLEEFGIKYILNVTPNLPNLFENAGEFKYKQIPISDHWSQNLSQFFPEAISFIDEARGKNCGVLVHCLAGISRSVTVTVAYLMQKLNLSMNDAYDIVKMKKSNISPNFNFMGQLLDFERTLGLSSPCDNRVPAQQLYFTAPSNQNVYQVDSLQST
Assay: MKP-3 phosphatase inhibitors, SAR follow-up, biochemical (AID 1055)
Details: pH 7; 23 °C

IC50: 7.9 µM
Compound: Cc1ccc2c(c1)C1C=CCC1C(C(=O)O)N2 (stereo unspecified) [MLS-0067149.0001]
